Experimental data reported in PMC5761851, “Application of a phenotypic drug discovery strategy to identify biological and chemical starting points for inhibition of TSLP production in lung epithelial cells” (PLoS ONE, 2018).

Experiments:
Test in all cases: kinase selectivity panel
Assay type in all cases: biochemical
FGFR3 = target: T1, FGFR3 (Homo sapiens, UniProt P22607); conditions: read-out: percentage of control activity (POC), FGFR3
T1 construct: purchased Eurofins Pharma Discovery Services (KinaseProfiler; Cerep BioPrint panel)
Outline: (§1)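 The compound is screened at 10 μM in duplicate against 125 representative kinases. Selected activities are followed up with a nine-concentration duplicate titration to give IC50.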

Ret = target: T2, Ret (Homo sapiens, UniProt P07949); conditions: read-out: percentage of control activity (POC), Ret
T2 construct: purchased Eurofins Pharma Discovery Services (KinaseProfiler; Cerep BioPrint panel)
Outline: as §1

TrkA = target: T3, TrkA (Homo sapiens, UniProt P04629); conditions: for remaining activity at 10 µM: read-out: percentage of control activity (POC), TrkA
T3 construct: Eurofins Pharma Discovery Services (contract assay service)
Outline: as §1

JNK2α2 = target: T4, JNK2α2 (Homo sapiens, UniProt P45984); conditions: read-out: percentage of control activity (POC), JNK2α2
T4 construct: purchased Eurofins Pharma Discovery Services (KinaseProfiler; Cerep BioPrint panel)
Outline: as §1

SAPK4 = target: T5, SAPK4 (Homo sapiens, UniProt O15264); conditions: read-out: percentage of control activity (POC), SAPK4
T5 construct: purchased Eurofins Pharma Discovery Services (KinaseProfiler; Cerep BioPrint panel)
T5 sequence (O15264 1-365): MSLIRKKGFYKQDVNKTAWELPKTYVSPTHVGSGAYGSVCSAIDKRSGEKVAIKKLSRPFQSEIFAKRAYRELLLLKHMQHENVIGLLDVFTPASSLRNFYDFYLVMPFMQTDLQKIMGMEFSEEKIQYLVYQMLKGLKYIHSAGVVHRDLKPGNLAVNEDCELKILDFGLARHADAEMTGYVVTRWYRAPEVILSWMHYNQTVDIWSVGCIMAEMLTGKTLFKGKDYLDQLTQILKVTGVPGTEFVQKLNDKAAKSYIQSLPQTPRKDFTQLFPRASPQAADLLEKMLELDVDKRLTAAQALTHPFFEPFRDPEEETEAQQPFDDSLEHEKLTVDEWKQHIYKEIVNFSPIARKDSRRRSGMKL
Outline: as §1

Rse = target: T6, Rse (Homo sapiens, UniProt Q06418); conditions: read-out: percentage of control activity (POC), Rse
T6 construct: purchased Eurofins Pharma Discovery Services (KinaseProfiler; Cerep BioPrint panel)
T6 sequence (Q06418 41-890): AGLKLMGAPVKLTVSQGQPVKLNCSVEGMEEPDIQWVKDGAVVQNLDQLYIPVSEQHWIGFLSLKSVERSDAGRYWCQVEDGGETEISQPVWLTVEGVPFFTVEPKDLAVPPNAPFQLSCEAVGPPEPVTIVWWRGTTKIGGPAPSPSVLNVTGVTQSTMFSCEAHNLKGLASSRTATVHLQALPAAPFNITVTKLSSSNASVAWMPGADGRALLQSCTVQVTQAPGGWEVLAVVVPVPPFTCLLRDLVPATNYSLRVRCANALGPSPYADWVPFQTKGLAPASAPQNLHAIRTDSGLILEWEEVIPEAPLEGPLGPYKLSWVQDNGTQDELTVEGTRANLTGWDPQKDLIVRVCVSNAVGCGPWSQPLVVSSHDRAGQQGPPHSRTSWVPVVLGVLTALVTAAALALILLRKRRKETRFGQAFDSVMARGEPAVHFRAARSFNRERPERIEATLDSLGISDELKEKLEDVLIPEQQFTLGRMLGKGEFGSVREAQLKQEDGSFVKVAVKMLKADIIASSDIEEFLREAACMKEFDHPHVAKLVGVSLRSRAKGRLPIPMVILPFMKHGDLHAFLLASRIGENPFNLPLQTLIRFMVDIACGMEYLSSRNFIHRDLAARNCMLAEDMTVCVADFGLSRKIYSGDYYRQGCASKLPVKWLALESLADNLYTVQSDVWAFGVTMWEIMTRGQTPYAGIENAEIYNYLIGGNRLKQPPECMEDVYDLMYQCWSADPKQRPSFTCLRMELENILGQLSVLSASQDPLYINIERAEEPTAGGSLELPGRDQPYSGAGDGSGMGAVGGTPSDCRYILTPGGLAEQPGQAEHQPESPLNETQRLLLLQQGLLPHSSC
Outline: as §1

T4 sequence (P45984 whole entry): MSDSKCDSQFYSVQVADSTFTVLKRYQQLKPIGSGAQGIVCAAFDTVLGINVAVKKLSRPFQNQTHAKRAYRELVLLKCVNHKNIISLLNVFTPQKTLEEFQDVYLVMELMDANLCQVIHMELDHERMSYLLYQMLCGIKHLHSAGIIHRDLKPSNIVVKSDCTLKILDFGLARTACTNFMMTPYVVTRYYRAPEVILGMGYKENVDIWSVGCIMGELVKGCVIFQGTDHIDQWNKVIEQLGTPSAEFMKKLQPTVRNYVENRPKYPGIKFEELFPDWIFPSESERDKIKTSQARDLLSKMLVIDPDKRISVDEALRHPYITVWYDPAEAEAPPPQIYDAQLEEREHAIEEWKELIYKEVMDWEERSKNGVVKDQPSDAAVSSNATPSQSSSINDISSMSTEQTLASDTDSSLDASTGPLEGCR
T1 sequence (P22607 23-806): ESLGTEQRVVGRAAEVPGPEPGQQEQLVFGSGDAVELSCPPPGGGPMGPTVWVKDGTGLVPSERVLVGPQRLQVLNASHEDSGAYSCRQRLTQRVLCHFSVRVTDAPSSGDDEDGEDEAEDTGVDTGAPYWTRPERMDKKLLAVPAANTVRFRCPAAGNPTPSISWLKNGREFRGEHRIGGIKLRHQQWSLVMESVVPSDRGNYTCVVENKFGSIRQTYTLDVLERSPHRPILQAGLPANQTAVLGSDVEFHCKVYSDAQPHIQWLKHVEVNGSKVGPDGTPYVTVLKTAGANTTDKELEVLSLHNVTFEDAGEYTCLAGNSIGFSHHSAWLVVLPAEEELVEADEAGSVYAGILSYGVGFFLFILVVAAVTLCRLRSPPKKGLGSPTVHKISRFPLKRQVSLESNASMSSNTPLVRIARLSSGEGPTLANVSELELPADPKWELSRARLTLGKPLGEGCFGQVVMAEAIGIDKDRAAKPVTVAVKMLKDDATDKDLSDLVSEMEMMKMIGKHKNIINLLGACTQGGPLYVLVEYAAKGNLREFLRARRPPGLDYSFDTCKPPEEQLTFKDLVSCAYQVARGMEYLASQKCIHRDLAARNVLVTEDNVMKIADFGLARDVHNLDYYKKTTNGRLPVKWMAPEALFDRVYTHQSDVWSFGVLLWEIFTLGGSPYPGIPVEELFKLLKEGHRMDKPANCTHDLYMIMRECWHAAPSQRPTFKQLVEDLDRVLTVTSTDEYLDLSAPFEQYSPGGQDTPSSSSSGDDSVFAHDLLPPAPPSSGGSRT
T3 sequence (P04629 33-796, species assumed): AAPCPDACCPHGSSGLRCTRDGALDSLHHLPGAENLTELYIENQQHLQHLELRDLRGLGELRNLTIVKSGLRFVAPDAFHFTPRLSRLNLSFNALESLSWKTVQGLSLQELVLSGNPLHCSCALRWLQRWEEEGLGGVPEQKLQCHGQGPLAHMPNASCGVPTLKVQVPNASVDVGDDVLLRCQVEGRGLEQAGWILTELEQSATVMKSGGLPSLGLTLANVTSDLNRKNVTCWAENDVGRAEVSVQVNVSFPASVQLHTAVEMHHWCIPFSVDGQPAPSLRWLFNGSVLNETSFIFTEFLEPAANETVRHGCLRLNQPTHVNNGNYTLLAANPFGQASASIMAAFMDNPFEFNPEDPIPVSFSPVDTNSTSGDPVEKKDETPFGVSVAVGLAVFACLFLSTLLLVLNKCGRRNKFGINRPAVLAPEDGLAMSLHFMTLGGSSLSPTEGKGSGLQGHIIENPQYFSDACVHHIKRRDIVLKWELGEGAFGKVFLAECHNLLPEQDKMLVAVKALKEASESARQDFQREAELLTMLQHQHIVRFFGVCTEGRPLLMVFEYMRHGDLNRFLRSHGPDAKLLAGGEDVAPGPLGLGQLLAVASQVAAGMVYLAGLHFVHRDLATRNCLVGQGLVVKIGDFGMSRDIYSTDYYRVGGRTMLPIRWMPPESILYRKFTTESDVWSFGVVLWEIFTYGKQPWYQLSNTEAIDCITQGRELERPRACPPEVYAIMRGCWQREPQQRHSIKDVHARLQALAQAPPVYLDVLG
T2 sequence (P07949 29-1114): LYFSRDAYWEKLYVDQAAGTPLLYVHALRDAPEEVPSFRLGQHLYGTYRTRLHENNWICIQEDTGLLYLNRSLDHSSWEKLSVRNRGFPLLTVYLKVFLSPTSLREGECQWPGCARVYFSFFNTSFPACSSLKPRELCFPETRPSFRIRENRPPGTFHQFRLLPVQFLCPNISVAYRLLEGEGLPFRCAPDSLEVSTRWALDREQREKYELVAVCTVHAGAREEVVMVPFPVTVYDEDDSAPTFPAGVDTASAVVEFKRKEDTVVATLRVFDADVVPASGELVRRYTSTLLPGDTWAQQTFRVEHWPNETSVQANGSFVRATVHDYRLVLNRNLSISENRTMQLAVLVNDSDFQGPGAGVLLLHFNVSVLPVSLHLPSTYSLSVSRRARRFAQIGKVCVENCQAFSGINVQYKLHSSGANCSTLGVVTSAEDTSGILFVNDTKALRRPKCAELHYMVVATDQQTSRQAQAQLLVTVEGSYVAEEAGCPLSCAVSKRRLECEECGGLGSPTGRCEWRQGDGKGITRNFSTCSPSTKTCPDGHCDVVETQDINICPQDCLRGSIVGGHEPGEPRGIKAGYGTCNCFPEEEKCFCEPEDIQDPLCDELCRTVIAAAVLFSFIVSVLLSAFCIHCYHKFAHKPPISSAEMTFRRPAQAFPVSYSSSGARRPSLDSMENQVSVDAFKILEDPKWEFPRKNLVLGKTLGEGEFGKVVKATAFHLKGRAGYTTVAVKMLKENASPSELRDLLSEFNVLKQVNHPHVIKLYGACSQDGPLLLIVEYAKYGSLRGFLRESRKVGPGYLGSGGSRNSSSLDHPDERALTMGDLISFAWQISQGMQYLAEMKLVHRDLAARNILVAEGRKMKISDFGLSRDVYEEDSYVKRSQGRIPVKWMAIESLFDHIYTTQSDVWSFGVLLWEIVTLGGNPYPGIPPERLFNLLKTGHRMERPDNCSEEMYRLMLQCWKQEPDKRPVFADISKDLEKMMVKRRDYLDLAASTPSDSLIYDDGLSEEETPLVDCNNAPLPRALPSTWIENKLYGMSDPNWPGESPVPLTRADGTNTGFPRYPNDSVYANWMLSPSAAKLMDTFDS

| remaining activity at 10 µM (FGFR3) [%] | remaining activity at 10 µM (Ret) [%] | remaining activity at 10 µM (TrkA; 10 μM) [%] | remaining activity at 10 µM (JNK2α2) [%] | remaining activity at 10 µM (SAPK4) [%] | remaining activity at 10 µM (Rse) [%] | SMILES | inhibition at 10 µM (TrkA; 10 μM) [%] | IC50 (TrkA; biochemical dose response, duplicate, read-out: Inhibition of indicated activity (IC50, μM): TrkA) [µM] |
| --- | --- | --- | --- | --- | --- | --- | --- | --- |
| 99 | 100 | 91 | 101 | 96 | 109 | CC(C)(C)N1CCC(c2cc(-c3ccc(F)cc3Cl)c3cc[n+]([O-])c(-c4c(Cl)cccc4Cl)c3n2)CC1 [compound 2] |  |  |
| 92 | 89 | 67 | 94 | 94 | 99 | Cc1ccc(C(=O)NCC2CC2)cc1-c1ccc2c(c1)NC(=O)C21CCCC1 [compound 3] |  |  |
| 97 | 71 | 68 | 91 | 81 | 107 | COc1c(NC(=O)c2ccc(C)c(-c3nnc4c(NCC(C)(C)C)nccn34)c2)cc(C(C)(C)C)cc1NS(C)(=O)=O [compound 7, reference compound] |  |  |

The next lines start with the molecule.

| SMILES | remaining activity at 10 µM (FGFR3) [%] | remaining activity at 10 µM (Ret) [%] | remaining activity at 10 µM (TrkA; 10 μM) [%] | remaining activity at 10 µM (JNK2α2) [%] | remaining activity at 10 µM (SAPK4) [%] | remaining activity at 10 µM (Rse) [%] | inhibition at 10 µM (TrkA; 10 μM) [%] | IC50 (TrkA; biochemical dose response, duplicate, read-out: Inhibition of indicated activity (IC50, μM): TrkA) [µM] |
| --- | --- | --- | --- | --- | --- | --- | --- | --- |
| Cn1cc(-c2cccc(-c3nc(C(=O)NC4C5CC6CC4CC(O)(C6)C5)c(N)nc3N)c2)cn1 (centres unmarked) [compound 4] | 88 | 63 | 14 | 98 | 88 | 92 | 86 | 3.23 |
| CS(=O)(=O)N1CCN(c2ccc(Nc3ncc(C(N)=O)c(NC4CC4)n3)cc2)CC1 [compound 5] | 8 | -1 | 1 | 8 | 32 | 33 |  |  |
